Measurements reported in patent US20110150873A1, “ANTI-INFLAMMATORY COMPOSITIONS AND COMBINATIONS” (CAMBRIDGE ENTERPRISE LIMITED, priority 2007, published 2011).
“Also recorded” adds a separate entry of the source.

How the values were obtained:
[1] = system: leukocyte recruitment into the lung; test: ovalbumin-sensitised rat model of asthma: total BAL leukocyte count; format: in vivo, Brown Norway rats; conditions: low dose alone: 0.03 mg/kg B′ or 0.01 mg/kg DMX, daily oral
Protocol: Briefly, adult Brown Norway rats (200-300 g body weight; n=10 per group) are sensitised by a single interperitoneal injection of 0.1 mg Ovalbumin on day 0. Each rat then receives an intratracheal challenge with a solution of 1% ovalbumin (w/v) on day 8, and with 2% ovalbumin (w/v) on days 15, 18 and 21. The animals are then sacrificed 3 hours after the final challenge on day 21. Note that ovalbumin (Sigma; purest available grade) can be made endotoxin-free by passage over EndoTrap Red columns (purchased from Cambrex; used in accordance with the manufacturer's instructions), and the endotoxin level confirmed as <5 EU/mg protein using the LAL assay (QCL-1000; Cambrex; performed in accordance with the manufacturer's instructions; 1 mg of standard endotoxin contains ˜900,000 EU/mg). […]
On sacrifice, total lung leukocyate recruitment is assessed by performing a broncheoalveolar lavage (BAL) using 4 lots of 3 ml sterile phosphate-buffered saline introduced through a tracheal cannula. For each animal, the BAL washes are combined, and the total cell population counted (using a haemocytometer).

[2] = system: serum growth hormone (GH); test: ovalbumin-sensitised rat model of asthma: serum growth hormone ELISA (side-effect measure); format: in vivo, Brown Norway rats
Protocol: (§1) Briefly, adult Brown Norway rats (200-300 g body weight; n=10 per group) are sensitised by a single interperitoneal injection of 0.1 mg Ovalbumin on day 0. Each rat then receives an intratracheal challenge with a solution of 1% ovalbumin (w/v) on day 8, and with 2% ovalbumin (w/v) on days 15, 18 and 21. The animals are then sacrificed 3 hours after the final challenge on day 21. Note that ovalbumin (Sigma; purest available grade) can be made endotoxin-free by passage over EndoTrap Red columns (purchased from Cambrex; used in accordance with the manufacturer's instructions), and the endotoxin level confirmed as <5 EU/mg protein using the LAL assay (QCL-1000; Cambrex; performed in accordance with the manufacturer's instructions; 1 mg of standard endotoxin contains ˜900,000 EU/mg). This ensures that the lung inflammation response results from the allergic response to the ovalbumin protein, rather than from unintended LPS stimulation which occurs even with the highest purity grade commercial ovalbumin preparations, and therefore ensures the model more closely represents the underlying molecular pathology of human asthma.
One group of mice (acting as a baseline control) receives no ovalbumin challenges, but are otherwise treated identically. A second group (positive control) receives the challenges but no drug treatment. Further groups are treated identically, but receive daily dosage with: (a) (S)-3-(2′,2′-dimethylpropanoylamino)-tetrahydropyridin-2-one (B′) at a dose of either 0.3 mg/kg or 0.03 mg/kg via oral gavage from day 8 until day 21, with dosage being given 1 hr prior to any subsequent challenge with ovalbumin made on the same day. […]
Serum is also prepared from a terminal bleed, and levels of GH are measured using a commercially available ELISA (Diagnostic Systems Laboratories, Inc; DSLabs) in accordance with the manufacturer's instructions.

[3] = system: Th1/Th2 polarisation axis; test: ovalbumin-sensitised rat model of asthma: splenocyte Th1/Th2 ratio by flow cytometry; format: in vivo, Brown Norway rats; conditions: low dose B′ (0.03 mg/kg)
Protocol: as §1, with “asthma. […]” for “asthma.”
The spleen is also removed from each mouse and placed in RPMI+10% FCS+antibiotics. […] The resulting cell suspensions are then centrifuged (328 g; 5 mins) and washed in RPMI+10% FCS+antibiotics, before being resuspended in fresh media and counted using a haemocytometer. […]

[4] = system: LPS-induced serum TNF-α; test: sub-lethal LPS-induced endotoxemia assay; format: in vivo, adult female CD-1 mice; conditions: for % Inhibition of LPS-induced serum TNF-α, Mean: oral route, six mice
Description: In this assay, mice are given a non-specific pro-inflammatory challenge using bacterial endotoxin (LPS), and the extent of the systemic inflammatory response (measured by serum levels of the central pro-inflammatory cytokine TNF-α, which is essentially absent from the blood under normal conditions, but is rapidly elevated in response to a wide range of inflammatory stimuli). We have selected this model, even though it is not, itself, a particularly close model of any human inflammatory disease condition, because TNF-α is known to be important in very many diseases (including rheumatoid arthritis, autoimmune disorders, Crohn's Disease, atherosclerosis, asthma and many more). Consequently, agents which suppress TNF-α production are already used clinically (e.g. etanercept (Enbrel™) and other anti-TNF-α antibody products, such as infliximab (Remicade™) and adalimumab (Humira™)) to treat a wide range of such diseases.
Mice (adult female CD-1 mice in groups of 6) were pretreated with various doses of each compound, either by the subcutaneous route 30 mins prior to LPS challenge, or by the oral route (via gavage) 60 mins prior to LPS. The mice were then challenged with an intraperitoneal injection of 750 μg of bacterial LPS and sacrificed 2 hours later. Serum was prepared from a terminal bleed by cardiac puncture, and the concentration of TNF-α determined by ELISA (R&D Systems). In each experiment, a group of 6 mice receive no LPS to act as a negative control, and a second group receive only LPS (with no candidate inhibitor). The level of TNF-α in serum from these animals which received LPS without drug pre-treatment is arbitrarily set to 100% (and is typically of the order of 6,000 pg/ml, compared with levels of <10 pg/ml among the negative control group, which received no LPS).

## CC(C)(C)C(=O)N[C@H]1CCCNC1=O [B′, (S)-3-(2′,2′-dimethylpropanoylamino)-tetrahydropyridin-2-one]
[1]
  effect on leukocyte accumulation in the lung: ineffective; also recorded: neither compound, when administered alone, has a statistically significant effect
[2]; B′ alone
  significant suppression of serum GH levels: not
[3]
  re-balancing of the Th1/Th2 axis: statistically significant Th1 shift

## C[C@@H]1C[C@H]2[C@@H]3CCC4=CC(=O)C=C[C@]4(C)[C@@]3(F)[C@@H](O)C[C@]2(C)[C@@]1(O)C(=O)CO [DMX, Dexamethasone, reference compound]
[2]; high dose DMX (1 mg/kg)
  suppression of serum GH levels: ≤ 80%
[2]; low dose DMX (0.01 mg/kg)
  suppression of serum GH levels: approximately 10%
[4]; Experiment 1, DMX 3 × 10^−7 mg
  % Inhibition of LPS-induced serum TNF-α, Mean: 19%
[4]; Experiment 2, DMX 3 × 10^−7 mg
  % Inhibition of LPS-induced serum TNF-α, Mean: 37%

## (S)-3-(adamantylamino)-caprolactam [B]
[4]; Experiment 1, B 3 × 10^−6 mg
  % Inhibition of LPS-induced serum TNF-α, Mean: 34%
[4]; Experiment 1
  % Inhibition of LPS-induced serum TNF-α, Mean: 15%
[4]; Experiment 2, B 3 × 10^−6 mg
  % Inhibition of LPS-induced serum TNF-α, Mean: 54%
[4]; Experiment 2
  % Inhibition of LPS-induced serum TNF-α, Mean: 34%
[4]; administered separately: 0.3 μg per mouse DMX or 0.1 μg/mouse B
  anti-inflammatory effect on the TNF-α response: minor anti-inflammatory effect which was not statistically significant in every experiment
